# Laboratory results from patent publication US20240016805A1, “THERAPEUTIC METHODS AND COMPOSITIONS FOR TREATING PANCREATIC CANCER USING DEVIMISTAT” (Cornerstone Pharmaceuticals, Inc., priority 2020, published 2024).
# What was measured:
# [1] = Compatibility of devimistat with IV infusion sets, IV bags and syringes; type: physicochemical
# Experimental: Therefore, DEHP-containing IV infusion sets, IV bags or syringes should not be used in mixing or administration of devimistat.
# A compatibility study has been conducted showing that devimistat is compatible with 4 commonly used IV infusion sets. Therefore, these 4 types of IV infusion sets, and IV infusion sets that are made with the same materials, can be used to administer devimistat.
# Compatibility studies have shown that devimistat drug product (50 mg/mL), and drug product diluted with D5W to various concentrations (1.6-25 mg/mL) are compatible with various types of syringes, as listed below. Therefore, any of these types of syringes, and syringes that are made with the same materials, can be used to administer devimistat. Also, glass syringes can also be used, since glass (such as glass containers) is compatible with devimistat drug product. • Norm-Ject, polyethylene barrel, polyethylene plunger, latex free (Henke Sass Wolf GMBH) syringes • Becton Dickinson syringes • Terumo syringes • Monoject syringes • Glass syringes
# [2] = Adverse events and potential risks attributed to the study drugs; type: in vivo; conditions: expected adverse event
# Text: Probably related: Creatinine (expected Adverse Event).
# Attribution is the relationship between an adverse event or serious adverse event and the study drug. Attribution will be assigned as follows: • Definite—The AE is clearly related to the study drug. • Probable—The AE is likely related to the study drug. • Possible—The AE may be related to the study drug. • Unlikely—The AE is doubtfully related to the study drug. • Unrelated—The AE is clearly NOT related to the study drug.
# [3] = Animal studies of IV administration of devimistat (acute toxicity, local inflammation); type: in vivo
# Experimental: Devimistat must be administered IV, via an IV catheter that is free flowing and free of air in the dead space of the IV catheter, to minimize vascular irritation, inflammation and acute toxicity of devimistat (Study NCL-049). […] To avoid local reactions at and around the site of administration, devimistat must be administered via a central venous catheter.
# Devimistat must not be administered as a bolus, but by infusion, at a rate of ˜4 mL/min, via a central venous catheter with D5W running at a rate of about 125-150 mL/hr. This is to minimize potential acute toxicity of devimistat, according to animal studies.
# [4] = test system: metastatic pancreatic cancer; conditions: cited from earlier work
# [5] = test system: advanced pancreatic cancer; conditions: gemcitabine vs. fluorouracil (Burris 1997); cited from earlier work
# [6] = test system: metastatic PDA; conditions: patients with metastatic PDA (Von Hoff 2013); cited from earlier work
# [7] = test system: metastatic pancreatic cancer; conditions: metastatic pancreatic cancer (Conroy 2011); cited from earlier work
# [8] = 18 patients who received the MTD, with mFOLFIRINOX
SMILES,"compatibility with IV infusion sets ([1]; 4 commonly used IV infusion sets (PVC, latex, polyethylene))",leaching of DEHP ([1]; DEHP-containing IV infusion sets and IV bags),adverse events probably related [2],"effect of accidental co-administration of extra air in the dead space of IV catheters ([3]; animal studies, IV administration)","effect of accidental leakage into the perivascular space during IV administration ([3]; in vivo, iv)","Grade 1-2 toxicity observed [4, 8]","common grade 3/4 toxicities [4, 8]",specific risks attributed beyond the toxicities associated with mFOLFIRINOX ([4]; pilot Phase 1 study),overall survival [5] [months],overall survival [6] [months],progression free survival (PFS) [6] [months],PFS [7] [months],overall survival [7] [months],partial response rate [7] [%]
"O=C(O)CCCCC(CCSCc1ccccc1)SCc1ccccc1 (stereo not drawn) [devimistat, 6,8-bis(benzylsulfanyl)octanoic acid]",compatible,can cause leaching of DEHP,Creatinine,potential to induce acute toxicity,can induce significant local inflammation,sensory neuropathy,"hypokalemia, diarrhea, abdominal pain, hyperglycemia, peripheral neuropathy, neutropenia, lymphopenia, anemia, and thrombocytopenia",no specific risks that have been definitively observed and attributed to devimistat,–,–,–,–,–,–
"O=c1[nH]cc(F)c(=O)[nH]1 [fluorouracil, 5-fluoro-1H-pyrimidine-2,4-dione]",–,–,–,–,–,–,–,–,4.4,–,–,–,–,–
Nc1ccn([C@@H]2O[C@H](CO)[C@@H](O)C2(F)F)c(=O)n1 [gemcitabine],–,–,–,–,–,–,–,–,5.6,6.7,3.7,3.3,6.8,9
